The values below are quoted from earlier work in US20260048031A1, “POLYMORPHS OF CO-CRYSTALS OF ITANAPRACED AND NICOTINAMIDE” (CereSpir Incorporated, priority 2024, published 2026).

Entries after “also recorded” stand apart in the source; their conditions may differ.

Data set [1] concerns rat traumatic brain injury model.
The conditions of data set [2]: in vivo.
Data set [3] deals with patients with mild cognitive impairment (MCI). As to conditions: listed as itanapraced.
Data set [4] has as its system transgenic Alzheimer's mouse models. As to conditions: Imbimbo, 2007, 2009; Lanzillotta 2011.
Data set [5] has as its system Juvenile Batten disease. The following applies: unpublished.
In data set [6] the test system is mouse models of Parkinson's Disease. The following applies: manuscript submitted.

Regarding `O=C(O)C1(c2ccc(-c3ccc(Cl)c(Cl)c3)c(F)c2)CC1` [CSP-1103, 1-(3′,4′-dichloro-2-fluoro[1,1′-biphenyl]-4-yl)-cyclopropanecarboxylic acid], the “effects in rat traumatic brain injury model” value in data set [1] (Lin et al., 2017) was “numerous beneficial effects”. In addition, in data set [1] (rats after TBI (Li 2017)), the “accumulation of hypertrophic microglia in the injured brain” value is recorded as “prevented”, the acute lung injury entry is “attenuated” and the neurological injury entry was “attenuated”. In addition, in data set [2], the “penetration into the brain” value is “substantial” and the plasma half-life result is given as “long”. Besides, in data set [2] (po), the oral bioavailability result was “good”. In addition, in data set [3] (CSF / brain, MCI patients), the “TNF-α (neuroinflammatory mediator)” value is on record as “beneficial dose-related CSF differences; also recorded: dose-related statistically significant reductions”, the “soluble CD40 ligand (neuroinflammatory mediator)” value is on record as “beneficial dose-related CSF differences; also recorded: dose-related statistically significant reductions” and the “total tau (marker of neurodegeneration)” value is given as “beneficial dose-related CSF differences; also recorded: dose-related statistically significant reductions”. For the same molecule, the “cognitive function throughout the duration of the trial” value in data set [3] (MCI patients) is “stable cognition; also recorded: stable cognitive function”. Moreover, in data set [3] (Phase 1 studies and Phase 2 in MCI, treated up to two years), the safety and tolerability entry is “good safety and tolerability; also recorded: well tolerated”. Also, in data set [4], the “effects in transgenic Alzheimer's mouse models” value is reported as “numerous beneficial effects”. In addition, the “effects in mouse models of Juvenile Batten disease” value in data set [5] was “numerous beneficial effects”. The “effects in mouse models of Parkinson's Disease” value in data set [6] is given as “numerous beneficial effects”.
